For 5 compounds, IC50 results are on record in BindingDB's records for doi:10.1158/1535-7163.MCT-07-0352 (Saic-Frederick, 2007).

This test has as its target T1, Broad substrate specificity ATP-binding cassette transporter ABCG2 (Homo sapiens, UniProt Q9UNQ0).
T1 sequence (Q9UNQ0 whole entry): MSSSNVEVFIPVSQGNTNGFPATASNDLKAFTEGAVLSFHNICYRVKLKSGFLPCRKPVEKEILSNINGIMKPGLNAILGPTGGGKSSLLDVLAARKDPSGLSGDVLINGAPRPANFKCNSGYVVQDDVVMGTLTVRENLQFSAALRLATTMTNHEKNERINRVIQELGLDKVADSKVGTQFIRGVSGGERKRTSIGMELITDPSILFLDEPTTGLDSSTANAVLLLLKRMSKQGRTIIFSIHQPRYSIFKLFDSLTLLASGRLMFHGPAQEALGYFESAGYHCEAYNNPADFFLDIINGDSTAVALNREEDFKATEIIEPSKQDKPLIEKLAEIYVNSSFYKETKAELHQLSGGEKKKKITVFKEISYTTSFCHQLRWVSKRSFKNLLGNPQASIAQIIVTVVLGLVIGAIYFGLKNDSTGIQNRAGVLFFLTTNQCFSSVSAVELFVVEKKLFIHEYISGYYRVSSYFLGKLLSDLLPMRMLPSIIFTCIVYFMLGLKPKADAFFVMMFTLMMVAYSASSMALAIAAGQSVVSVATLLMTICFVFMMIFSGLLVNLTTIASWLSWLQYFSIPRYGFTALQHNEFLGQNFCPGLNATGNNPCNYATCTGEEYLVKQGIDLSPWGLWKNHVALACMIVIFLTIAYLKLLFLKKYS
Kind of test: Screening Assay for ABCG2 Inhibitors. The conditions noted are these: pH 7.4; 37 °C. The procedure: IC50 and maximal activities for inhibition of PhA accumulation were determined from dose-response curves. The accumulation of PhA, a fluorescent ABCG2 substrate, formed the basis of the assay for inhibitors of ABCG2 activity. NCI-H460/MX20 cells were transferred to black-walled, clear-bottomed 384-well polylysine-coated assay plates (Corning) and allowed to attach for several hours. PhA was added, immediately followed by compounds or vehicle (DMSO/PBS) control and incubated for an additional 18 h. After removal of medium and washing with PBS containing Ca2+ and Mg2+, fluorescence intensity was read on a Tecan Safire fluorescence plate reader in bottom read mode (395 nm excitation, 670 nm emission). Each plate had control wells containing Fumitremorgin C (FTC). Data were normalized to FTC and reported as the percentage of FTC fluorescence. Apparent IC50 values were calculated from dose-response data using SigmaPlot (SPSS, Inc., Chicago) 4-parameter logistic nonlinear regression analysis.
By IC50 is commonly meant the midpoint of a concentration-inhibition curve. High values mean weaker potency in that assay, low ones greater potency in that assay. `CC1CCC2(OC1)OC1C(O)C3C4CCC5CC(OC6OC(CO)C(OC7OC(CO)C(O)C(OC8OCC(O)C(O)C8O)C7OC7OC(CO)C(O)C(OC8OC(CO)C(O)C(O)C8O)C7O)C(O)C6O)C(O)CC5(C)C4CCC3(C)C1C2C` (stereo not given) [Digitonin] yielded an IC50 of 9.7 µM.

In the case of `CC(C)C1(NC(=O)C2CC3c4cccc5[nH]cc(c45)CC3N(C)C2)OC2(O)C3CCCN3C(=O)C(Cc3ccccc3)N2C1=O` (stereo not given) [Dihydroergocristine], the concentration for half-maximal inhibition (IC50) came out at 11.8 µM.

Turning to `Cc1[nH]n(C(=O)c2ccncc2)c(=O)c1N=Nc1ccc2ccccc2c1` [NSC303769], the IC50 was determined as 5.8 µM.

In turn, `Cc1ccc(NC(=O)c2cc3ccccc3cc2O)c(C)c1` [NSC306698] showed a concentration for half-maximal inhibition (IC50) of 5.4 µM.

For `NN=C1C(OC(=O)Nc2cccc(Cl)c2)=Nc2ccccc21` [NSC320852], the half-maximal inhibitory concentration (IC50) stood at 4.6 µM.
